This is an account of results in US20190008920A1, “OPHTHALMIC COMPOSITIONS AND METHODS OF USE” (Ocugen, Inc., priority 2017, published 2019).

For data set [1] the following is noted: brimonidine tartrate + cyclosporine nanoemulsion formulation. As for the experimental part:
The partitioning of active pharmaceutical ingredients in oil and aqueous phases of these exemplary nanoemulsion formulations were determined using RP-HPLC methods. […] In nanoemulsion formulation, oil and aqueous phase were separated using ultrafiltration unit by centrifugation process. Quantity of APIs in these oil and aqueous phase was quantified using HPLC method.

For data set [2] the following is noted: ophthalmic solution 5.0%, administered twice daily; cited from earlier work.

On to `Brc1c(NC2=NCCN2)ccc2nccnc12` [brimonidine, 5-Bromo-N-(4,5-dihydro-1H-imidazol-2-yl) quinoxalin-6-amine], for which the “fraction of API partitioned in aqueous phase” value in data set [1] (aqueous phase) is on record as ~70%. For the same molecule, in data set [1] (oil phase), the “fraction of API partitioned in oil phase” value is given as ~30%.

On to `CS(=O)(=O)c1cccc(C[C@H](NC(=O)c2c(Cl)cc3c(c2Cl)CCN(C(=O)c2ccc4ccoc4c2)C3)C(=O)O)c1` [Lifitegrast, N-{[2-(1-Benzofuran-6-ylcarbonyl)-5,7-dichloro-1,2,3,4-tetrahydro-6-isoquinolinyl]carbonyl}-3-(methylsulfonyl)-L-phenylalanine], for which, in data set [2], the “symptoms of ocular discomfort and eye dryness compared with placebo” value was “improve symptoms of ocular discomfort and eye dryness”.
